US9809598B2 (Merck Patent GmbH, priority 2014, dated 2017)
Where a name gives a salt, the structure may show the parent alone.

Assays:
TNKS1 = molecular target: T1, TNKS1 (Homo sapiens, UniProt O95271); assay: TNKS1 activity ELISA (autoparsylation assay); type: biochemical; conditions: GST-tagged Tnks-1 (1023-1327 aa)
T1 construct: GST-tagged Tnks-1 (1023-1327 aa, prepared in-house); made in house
Experimental: (§1) Description of the TNKS1 and TNKS2 ELISA Assay
(§2) Biochemical Activity Testing of TNKS 1 and 2: Activity ELISA (Autoparsylation Assay)
(§3) For analysis of autoparsylation activity of TNKS 1 and 2 an activity ELISA iss performed: In the first step GST tagged TNKS is captured on a Glutathione coated plate. Then the activity assay with biotinylated NAD is performed in the absence/presence of the compounds. During the enzymatic reaction GST tagged TNKS transfers biotinylated ADP-ribose to itself from biotinylated NAD as co-substrate. For the detection streptavidin-HRP conjugate is added that binds to the biotinylated TNKS and is thereby captured to the plates. The amount of biotinylated resp. autoparsylated TNKS is detected with a luminescence substrate for HRP. The level of the luminescence signal correlats directly with the amount of autoparsylated TNKS and therefore with activity of TNKS.
(§4) The activity ELISA is performed in 384 well Glutathione coated microtiter plates (Express capture Glutathione coated plate, Biocat, Heidelberg, Germany). The plates are pre-equilibrated with PBS. […] The plates are washed 3 times with PBS-Tween-20. The wells are blocked by incubation at room temperature for 20 minutes with 50 μl blocking buffer (PBS, 0.05% Tween-20, 0.5% BSA). Afterwards the plates are washed 3 times with PBS-Tween-20. […] The reaction is stopped by 3 times washing with PBS-Tween-20. For the detection 50 μl of 20 ng/μl Streptavidin, HRP conjugate (MoBiTec, Göttingen, Germany) in PBS/0.05% Tween-20/0.01% BSA are added and the plates are incubated for 30 minutes at room temperature. After three times washing with PBS-Tween-20 50 μl of SuperSignal ELISA Femto Maximum sensitivity substrate solution (ThermoFisherScientific (Pierce), Bonn, Germany) are added. Following a 1 minute incubation at room temperature luminescence signals are measured with an Envision multimode reader (Perkin Elmer LAS Germany GmbH) at 700 nm. The full value used is the inhibitor-free reaction. […] The inhibitory values (IC50) are determined using either the program Symyx Assay Explorer® or Condosseo® from GeneData.

TNKS2 = molecular target: T2, TNKS2 (Homo sapiens, UniProt Q9H2K2); assay: TNKS2 activity ELISA (autoparsylation assay); type: biochemical; conditions: GST-tagged Tnks-2 (873-1166 aa); read-out: IC50 [M] TNKS2 ELISA
T2 construct: GST-tagged Tnks-2 (873-1166 aa, prepared in-house); made in house
Experimental: as §1, §2, §3, §4

Tankyrases = conditions: read-out: EC50 [M] TNKS cellular assay; DLD1 cells, 24 hours, Axin2 increase

T2 sequence (Q9H2K2 873-1166): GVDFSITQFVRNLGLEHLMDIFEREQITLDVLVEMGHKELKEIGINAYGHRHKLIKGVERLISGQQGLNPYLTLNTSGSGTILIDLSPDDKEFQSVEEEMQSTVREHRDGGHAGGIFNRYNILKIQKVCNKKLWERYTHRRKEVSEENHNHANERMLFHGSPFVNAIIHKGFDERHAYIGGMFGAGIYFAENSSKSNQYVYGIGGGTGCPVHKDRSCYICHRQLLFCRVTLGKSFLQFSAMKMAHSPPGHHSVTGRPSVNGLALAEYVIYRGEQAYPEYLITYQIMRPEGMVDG
T1 sequence (O95271 1023-1327): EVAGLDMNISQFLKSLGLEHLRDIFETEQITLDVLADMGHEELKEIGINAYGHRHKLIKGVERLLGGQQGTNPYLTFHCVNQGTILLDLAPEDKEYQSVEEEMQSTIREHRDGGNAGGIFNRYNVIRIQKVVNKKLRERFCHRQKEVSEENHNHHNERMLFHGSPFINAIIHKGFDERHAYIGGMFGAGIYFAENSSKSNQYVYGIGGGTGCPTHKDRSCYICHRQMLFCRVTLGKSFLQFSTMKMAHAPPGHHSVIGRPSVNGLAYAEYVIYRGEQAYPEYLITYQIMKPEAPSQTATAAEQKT

Row | Compound | IC50 (TNKS1) [µM] | IC50 (TNKS2) [M] | EC50 (Tankyrases) [M]
1 | COc1ccc(C(=O)C2CCN(C(=O)CCCc3cn4cccc4c(=O)[nH]3)CC2)cc1 [Compound C2, 3-{4-[4-(4-Methoxy-benzoyl)-piperidin-1-yl]-4-oxo-butyl}-2H-pyrrolo[1,2-a]-pyrazin-1-one] | 0.00024 | 1.4e-10 | 5e-10
2 | COc1ccc(C(=O)C2CCN(C(=O)CCCc3cn4cccc4c(=O)[nH]3)CC2)cc1C [Compound C4, 3-{4-[4-(4-Methoxy-3-methyl-benzoyl)-piperidin-1-yl]-4-oxo-butyl}-2H-pyrrolo[1,2-a]pyrazin-1-one] | 0.00014 | 1.5e-10 | 3.4e-10
3 | COc1ccc(C(=O)C2CCN(C(=O)CCCc3cn4c(F)ccc4c(=O)[nH]3)CC2)cc1 [Compound C9, 6-Fluoro-3-{4-[4-(4-methoxy-benzoyl)-piperidin-1-yl]-4-oxo-butyl}-2H-pyrrolo[1,2-a]pyrazin-1-one] | 0.0002 | 1.3e-10 | 7.2e-10
4 | COc1ccc(C(=O)C2CCN(C(=O)CCCc3cn4cncc4c(=O)[nH]3)CC2)cc1 [Compound C10, 6-{4-[4-(4-Methoxy-benzoyl)-piperidin-1-yl]-4-oxo-butyl}-7H-imidazo[1,5-a]-pyrazin-8-one] | 0.00032 | 1.3e-10 | 6.7e-09
5 | COc1ccc(C(=O)C2CCN(C(=O)CCCc3cn4nc(C)cc4c(=O)[nH]3)CC2)cc1 [Compound C12, 6-{4-[4-(4-Methoxy-benzoyl)-piperidin-1-yl]-4-oxo-butyl}-2-methyl-5H-pyrazolo[1,5-a]pyrazin-4-one] | 0.00013 | 1.4e-10 | 4.9e-10
6 | COc1ccc(C(=O)C2CCN(C(=O)CCCc3cn4ccnc4c(=O)[nH]3)CC2)cc1 [Compound C13, 6-{4-[4-(4-Methoxy-benzoyl)-piperidin-1-yl]-4-oxo-butyl}-7H-imidazo[1,2-a]-pyrazin-8-one] | 0.0012 | 7.4e-10 | 4.1e-07
7 | COc1ccc(C(=O)C2CCN(C(=O)CCCc3nc4c(C)scc4c(=O)[nH]3)CC2)cn1 [Compound C114] | 0.00068 | – | –
8 | Cn1cc(C(=O)C2CCN(C(=O)CCCc3nn4cccc4c(=O)[nH]3)CC2)cn1 [Compound C146, 2-{4-[4-(1-Methyl-1H-pyrazole-4-carbonyl)-piperidin-1-yl]-4-oxo-butyl}-3H-pyrrolo[2,1-f][1,2,4]triazin-4-one] | 0.0022 | 1.4e-09 | 8.7e-08
9 | CC(C)(O)c1ccc(C(=O)C2CCN(C(=O)CCCc3nc4c(c(=O)[nH]3)COCC4)CC2)cc1 [Compound C200, 2-(4-{4-[4-(1-Hydroxy-1-methyl-ethyl)-benzoyl]-piperidin-1-yl}-4-oxo-butyl)-3,5,7,8-tetrahydro-pyrano[4,3-d]pyrimidin-4-one] | 0.17 | 2.2e-08 | 3.7e-06
10 | Cn1cc(C(=O)C2CCN(C(=O)CCCc3cn4cncc4c(=O)[nH]3)CC2)cn1 [Compound C207, 6-{4-[4-(1-Methylpyrazole-4-carbonyl)-1-piperidyl]-4-oxo-butyl}-7H-imidazo[1,5-a]pyrazin-8-one] | 0.0071 | 2.8e-09 | 1.1e-06
11 | CC(C)n1cc(C(=O)C2CCN(C(=O)CCCc3nc4c(cnn4C)c(=O)[nH]3)CC2)cn1 [Compound C218, 6-{4-[4-(1-Isopropyl-1H-pyrazole-4-carbonyl)-piperidin-1-yl]-4-oxo-butyl}-1-methyl-1,5-dihydro-pyrazolo[3,4-d]pyrimidin-4-one] | 0.002 | 8.5e-10 | 1.4e-07
12 | CCn1cc(C(=O)C2CCN(C(=O)CCCc3nc4c(c(=O)[nH]3)COCC4)CC2)cn1 [Compound C228, 2-{4-[4-(1-Ethyl-1H-pyrazole-4-carbonyl)-piperidin-1-yl]-4-oxo-butyl}-3,5,7,8-tetrahydro-pyrano[4,3-d]pyrimidin-4-one] | 0.014 | 2.2e-09 | 2.9e-06
13 | COc1ccc(C(=O)C2CCN(C(=O)CCCc3nc(C)c(C)c(=O)[nH]3)CC2)cn1 [Compound C241, 2-{4-[4-(6-Methoxy-pyridine-3-carbonyl)-piperidin-1-yl]-4-oxo-butyl}-5,6-dimethyl-3H-pyrimidin-4-one] | 0.011 | 4.9e-09 | 3.5e-08
14 | Cc1nc(CCCC(=O)N2CCC(C(=O)c3cnn(C)c3)CC2)[nH]c(=O)c1C [Compound C242, 5,6-Dimethyl-2-{4-[4-(1-methyl-1H-pyrazole-4-carbonyl)-piperidin-1-yl]-4-oxo-butyl}-3H-pyrimidin-4-one] | 0.024 | 7.1e-09 | 8.8e-07
15 | COc1ccc(C(=O)C2CCN(C(=O)CCCc3nncc4ccccc34)CC2)cc1 [Compound C250, 1-[4-(4-Methoxy-benzoyl)-piperidin-1-yl]-4-phthalazin-1-yl-butan-1-one] | 0.0028 | 1.1e-09 | 4.6e-08
16 | CCc1cc(=O)[nH]c(CCCC(=O)N2CCC(C(=O)c3ccc(OC)cc3)CC2)n1 [Compound C251, 6-Ethyl-2-{4-[4-(4-methoxy-benzoyl)-piperidin-1-yl]-4-oxo-butyl}-3H-pyrimidin-4-one] | 0.0078 | 2.9e-09 | 7e-08
17 | CCc1cc(=O)[nH]c(CCCC(=O)N2CCC(C(=O)c3ccc(F)cc3)CC2)n1 [Compound C252, 6-Ethyl-2-{4-[4-(4-fluoro-benzoyl)-piperidin-1-yl]-4-oxo-butyl}-3H-pyrimidin-4-one] | 0.035 | 1.7e-08 | –
18 | CCc1cc(=O)[nH]c(CCCC(=O)N2CCC(C(=O)c3ccc(OC)nc3)CC2)n1 [Compound C253, 6-Ethyl-2-{4-[4-(6-methoxy-pyridine-3-carbonyl)-piperidin-1-yl]-4-oxo-butyl}-3H-pyrimidin-4-one] | 0.031 | 1.9e-08 | 7e-07
19 | COc1ccc(C(=O)C2CCN(C(=O)CCCc3nc(C(C)C)cc(=O)[nH]3)CC2)cc1 [Compound C254, 6-Isopropyl-2-{4-[4-(4-methoxy-benzoyl)-piperidin-1-yl]-4-oxo-butyl}-3H-pyrimidin-4-one trifluoroacetate] | 0.028 | 1.5e-08 | 2.6e-07
20 | CC(C)c1cc(=O)[nH]c(CCCC(=O)N2CCC(C(=O)c3ccc(F)cc3)CC2)n1 [Compound C255, 2-{4-[4-(4-Fluorobenzoyl)-1-piperidyl]-4-oxo-butyl}-4-isopropyl-1H-pyrimidin-6-one trifluoroacetate] | 0.11 | 4.9e-08 | 2.7e-06
21 | COc1ccc(C(=O)C2CCN(C(=O)CCCc3nc(C(C)C)cc(=O)[nH]3)CC2)cn1 [Compound C256, 4-Isopropyl-2-{4-[4-(6-methoxypyridine-3-carbonyl)-1-piperidyl]-4-oxo-butyl}-1H-pyrimidin-6-one trifluoroacetate] | 0.16 | 6.5e-08 | 2.6e-06
22 | CC(C)c1cc(=O)[nH]c(CCCC(=O)N2CCC(C(=O)c3cnn(C)c3)CC2)n1 [Compound C257, 4-Isopropyl-2-{4-[4-(1-methylpyrazole-4-carbonyl)-1-piperidyl]-4-oxo-butyl}-1H-pyrimidin-6-one trifluoroacetate] | 0.11 | 5.8e-08 | 9.3e-06
23 | COc1ccc(C(=O)C2CCN(C(=O)CCCc3noc4ccccc34)CC2)cc1 [Compound C258, 4-(1,2-Benzoxazol-3-yl)-1-[4-(4-methoxybenzoyl)-1-piperidyl]butan-1-one] | 0.15 | 9.5e-08 | –
24 | O=C(c1ccc(F)cc1)C1CCN(C(=O)CCCc2noc3ccccc23)CC1 [Compound C259, 4-(1,2-Benzoxazol-3-yl)-1-[4-(4-fluorobenzoyl)-1-piperidyl]butan-1-one] | 0.73 | 4.6e-07 | –
25 | O=C(c1ccc(F)c(F)c1)C1CCN(C(=O)CCCc2nc3c(c(=O)[nH]2)COCC3)CC1 [Compound C262, 2-{4-[4-(3,4-Difluorobenzoyl)-1-piperidyl]-4-oxo-butyl}-3,5,7,8-tetrahydro-pyrano[4,3-d]pyrimidin-4-one] | 0.0071 | 1.2e-09 | –
26 | CC(F)(F)c1ccc(C(=O)C2CCN(C(=O)CCCc3nc4c(c(=O)[nH]3)COCC4)CC2)cc1 [Compound C263, 2-{4-{4-[4-(1,1-Difluoroethyl)benzoyl]-1-piperidyl}-4-oxo-butyl}-3,5,7,8-tetra-hydropyrano[4,3-d]pyrimidin-4-one] | 0.0051 | 3.3e-10 | –
